“And” between values parts separate entries of the source, which are not always exact repeats. Equal entries are not always repeated.
How the values were obtained:
[1] = target: T1, BRD4 Bromodomain 1 (BRD4 BD1) (Homo sapiens, UniProt O60885); experiment: AlphaScreen binding assay, BRD4 BD1; conditions: His-tagged BRD4 BD1 50 nM, biotinylated H4 (1-21) K5/8/12/16 tetra-acetylated peptide 50 nM, compounds listed under IC50 range headings
T1 construct: 44-168 and BRD4 BD2
How it was run: (§1)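 An AlphaScreen competition format was used with His-BRD4 BD1 or BD2 and biotin-H4 K5/8/12/16-acetyl peptide, each at matched final levels of 50 nM (BD1) or 100 nM (BD2). Incubation in HEPES/NaCl buffer with 0.1% BSA and 0.01% Triton X-100 ran ≥1 h before IC50 determination.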

[2] = target: T2, BRD4 Bromodomain 2 (BRD4 BD2) (Homo sapiens, UniProt O60885); experiment: AlphaScreen binding assay, BRD4 BD2; conditions: His-tagged BRD4 BD2 100 nM, biotinylated H4 (1-21) K5/8/12/16 tetra-acetylated peptide 100 nM, compounds listed under IC50 range headings
T2 construct: 333-460 were cloned, expressed, and purified to homogeneity
How it was run: as §1

[3] = tested on: acute myelocytic leukemia (AML) cell line MV4-11; experiment: Oncology cell growth assay (3-day proliferation, CellTiter-Glo); assay type: cell-based; conditions: Homo sapiens, MV4-11, 72 h, MV4-11 cells, 3000 cells/well, compounds listed under IC50 range headings, read-out: MV411 IC50 (gIC50, inhibition of proliferation)
How it was run: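 Compounds were serially diluted 3-fold in DMSO, giving final well concentrations from 10 down to 0.0045 μM. MV4-11 cells were then seeded at 3000 cells/well in RPMI 1640 with 10% FBS and incubated 72 hours. CellTiter-Glo signal was measured and gIC50 obtained by four-parameter logistic regression.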

SMILES | IC50 [1] | IC50 [2] [nM] | IC50 [3] [nM]
COC(=O)N1c2ccc(-c3cnn(C4CC4)c3)c(Oc3ccccc3Cl)c2CC[C@@H]1C [I-215, (S)-methyl 5-(2-chlorophenoxy)-6-(1-cyclopropyl-1H-pyrazol-4-yl)-2-methyl-3,4-dihydroquinoline-1(2H)-carboxylate] | 1000 to 10000 nM | 50 to 500 | 500 to 1000
COC(=O)N1c2ccc(-c3cnn(C4CC4)c3)c(Oc3ccc(C(N)=O)cc3)c2CC[C@@H]1C [I-216, (S)-methyl 5-(4-carbamoylphenoxy)-6-(1-cyclopropyl-1H-pyrazol-4-yl)-2-methyl-3,4-dihydroquinoline-1(2H)-carboxylate] | 100 to 1000 nM | < 50 | < 500
CC(=O)N1c2ccc(-c3cnn(C4CC4)c3)c(Oc3ccc(C#N)cc3)c2CC[C@@H]1C [I-217, (S)-4-(1-acetyl-6-(1-cyclopropyl-1H-pyrazol-4-yl)-2-methyl-1,2,3,4-tetrahydroquinolin-5-yloxy)benzonitrile] | 100 to 1000 nM | < 50 | < 500
C[C@H]1CCc2c(ccc(-c3ccn[nH]3)c2Oc2ccccc2)N1C(=O)C1CC1 [I-218, (S)-cyclopropyl(2-methyl-5-phenoxy-6-(1H-pyrazol-5-yl)-3,4-dihydroquinolin-1(2H)-yl)methanone] | 1000 to 10000 nM | < 50 | < 500
C[C@H]1CCc2c(ccc(-c3cnn(C)c3)c2Oc2ccccc2)N1C(=O)C1CC1 [I-224, (S)-cyclopropyl(2-methyl-6-(1-methyl-1H-pyrazol-4-yl)-5-phenoxy-3,4-dihydroquinolin-1(2H)-yl)methanone] | 100 to 1000 nM | < 50 | < 500
CC(=O)N1c2ccc(-c3cnn(C4CC4)c3)c(Oc3ccc(F)cc3)c2CC[C@@H]1C [I-225, (S)-1-(6-(1-cyclopropyl-1H-pyrazol-4-yl)-5-(4-fluorophenoxy)-2-methyl-3,4-dihydroquinolin-1(2H)-yl)ethanone] | 100 to 1000 nM | < 50 | < 500
CC(=O)N1c2ccc(-c3cnn(C4CC4)c3)c(Oc3ccc(Cl)cc3)c2CC[C@@H]1C [I-226, (S)-1-(5-(4-chlorophenoxy)-6-(1-cyclopropyl-1H-pyrazol-4-yl)-2-methyl-3,4-dihydroquinolin-1(2H)-yl)ethanone] | 100 to 1000 nM | 50 to 500 | < 500
COC(=O)N1c2ccc(-c3cnn(C4CCN(C)CC4)c3)c(Oc3ccc(Cl)cc3C#N)c2CC[C@@H]1C [I-245, methyl (S)-5-(4-chloro-2-cyanophenoxy)-2-methyl-6-(1-(1-methylpiperidin-4-yl)-1H-pyrazol-4-yl)-3,4-dihydroquinoline-1(2H)-carboxylate] | 100 to 1000 nM and ≥ 10000 nM | < 50 | < 500
CC(=O)N1c2ccc(-c3cnn(C4CCN(C)CC4)c3)c(Oc3ccccc3C#N)c2CC[C@@H]1C [I-246, (S)-2-((1-acetyl-2-methyl-6-(1-(1-methylpiperidin-4-yl)-1H-pyrazol-4-yl)-1,2,3,4-tetrahydroquinolin-5-yl)oxy)benzonitrile] | 100 to 1000 nM | < 50 | < 500
COC(=O)N1c2ccc(-c3cnn(C4CCN(C)C4)c3)c(OC3CCC3)c2CC[C@@H]1C (stereo partly drawn) [I-247, (2S)-methyl 5-cyclobutoxy-2-methyl-6-(1-(1-methylpyrrolidin-3-yl)-1H-pyrazol-4-yl)-3,4-dihydroquinoline-1 (211)-carboxylate] | 100 to 1000 nM | 50 to 500 | < 500
COC(=O)N1c2ccc(-c3cnn(C4CCN(C)C4)c3)c(Oc3ccc(F)cc3)c2CC[C@@H]1C (stereo partly drawn) [I-249, (2S)-methyl 5-(4-fluorophenoxy)-2-methyl-6-(1-(1-methylpyrrolidin-3-yl)-1H-pyrazol-4-yl)-3,4-dihydroquinoline-1(2H)-carboxylate] | 100 to 1000 nM | < 50 | < 500
CCN1CC(Oc2c(-c3cnn(C4CC4)c3)ccc3c2CC[C@H](C)N3C(=O)OC)C1 [I-251, (S)-methyl 6-(1-cyclopropyl-1H-pyrazol-4-yl)-5-(1-ethylazetidin-3-yloxy)-2-methyl-3,4-dihydroquinoline-1(2H)-carboxylate] | 1000 to 10000 nM | 50 to 500 | > 1000
COC(=O)N1c2ccc(-c3cnn(C4CC4)c3)c(OC3CN(C(C)C)C3)c2CC[C@@H]1C [I-252, (S)-methyl 6-(1-cyclopropyl-1H-pyrazol-4-yl)-5-(1-isopropylazetidin-3-yloxy)-2-methyl-3,4-dihydroquinoline-1(2H)-carboxylate] | 1000 to 10000 nM | ≥ 500 | > 1000
CCN1CC(Oc2c(-c3cnn(C4CC4)c3)ccc3c2CC[C@H](C)N3C(C)=O)C1 [I-253, (S)-1-(6-(1-cyclopropyl-1H-pyrazol-4-yl)-5-(1-ethylazetidin-3-yloxy)-2-methyl-3,4-dihydroquinolin-1(2H)-yl)ethanone] | ≥ 10000 nM | ≥ 500 | > 1000
CC(=O)N1c2ccc(-c3cnn(C4CC4)c3)c(OC3CN(C(C)C)C3)c2CC[C@@H]1C [I-254, (S)-1-(6-(1-cyclopropyl-1H-pyrazol-4-yl)-5-(1-isopropylazetidin-3-yloxy)-2-methyl-3,4-dihydroquinolin-1(2H)-yl)ethanone] | 1000 to 10000 nM | 50 to 500 | > 1000
CC(=O)N1c2ccc(-c3cnn(C4CC4)c3)c(Oc3cc(C)ccn3)c2CC[C@@H]1C [I-255, 1-[(2S)-6-(1-cyclopropyl-1H-pyrazol-4-yl)-2-methyl-5-[(4-methylpyridin-2-yl)oxy]-1,2,3,4-tetrahydroquinolin-1-yl]ethan-1-one] | 100 to 1000 nM | < 50 | < 500
CC(=O)N1c2ccc(-c3cnn(C4CC4)c3)c(Oc3cccc(C)n3)c2CC[C@@H]1C [I-256, (S)-1-(6-(1-cyclopropyl-1H-pyrazol-4-yl)-2-methyl-5-(6-methylpyridin-2-yloxy)-3,4-dihydroquinolin-1 (2H)-yl)ethanone] | 100 to 1000 nM | < 50 | < 500
CC(=O)N1c2ccc(-c3cnn(C4CC4)c3)c(Oc3nccc4ccccc34)c2CC[C@@H]1C [I-257, (S)-1-(6-(1-cyclopropyl-1H-pyrazol-4-yl)-5-(isoquinolin-1-yloxy)-2-methyl-3,4-dihydroquinolin-1(2H)-yl)ethanone] | 1000 to 10000 nM | < 50 | < 500
CC(=O)N1c2ccc(-c3cnn(C4CCNCC4)c3)c(Oc3ccccc3F)c2CC[C@@H]1C [I-258, (S)-1-(5-(2-fluorophenoxy)-2-methyl-6-(1-(piperidin-4-yl)-1H-pyrazol-4-yl)-3,4-dihydroquinolin-1 (2H)-yl)ethanone] | 100 to 1000 nM | < 50 | < 500
COC(=O)N1c2ccc(-c3cnn(C4CCNCC4)c3)c(Oc3ccccc3F)c2CC[C@@H]1C [I-259, (S)-methyl 5-(2-fluorophenoxy)-2-methyl-6-(1-(piperidin-4-yl)-1H-pyrazol-4-yl)-3,4-dihydroquinoline-1(2H)-carboxylate] | 100 to 1000 nM | < 50 | < 500
COC(=O)N1c2ccc(-c3cnn(C4CCNCC4)c3)c(Oc3ccc(F)cc3F)c2CC[C@@H]1C [I-263, (S)-methyl 5-(2,4-difluorophenoxy)-2-methyl-6-(1-(piperidin-4-yl)-1H-pyrazol-4-yl)-3,4-dihydroquinoline-1(2H)-carboxylate] | 100 to 1000 nM | < 50 | < 500

Source: patent US10611750B2, “Tetrahydroquinoline compositions as bet bromodomain inhibitors” (FORMA Therapeutics, Inc., priority 2013, dated 2020)
